Assay: Measurement of photostability of the cinnamate UV-B filter in emulsion formulas on PMMA plates under SUN TEST xenon lamp
Format: physicochemical
Conditions: Formulas 9-11 (1-4% of Example 1) compared with control Formula 8

For CCCCOC(=O)c1ccc(Nc2nc(Nc3ccc(C=C(C(=O)OCC(C)(C)C)C(=O)OCC(C)(C)C)cc3)nc(Nc3ccc(C=C(C(=O)OCC(C)(C)C)C(=O)OCC(C)(C)C)cc3)n2)cc1 [Example 1, 2,4-bis-(dineopentyl 4′-aminobenzalmalonate)-6-(butyl 4″-aminobenzoate)-s-triazine], the “Photostability of the cinnamate ester in the presence of the compound” value was “improvement in the photostability of the cinnamate ester is clearly seen”.

Reference: patent US20080008669A1, “Photostable sunscreen compositions comprising cinnamate ester UV-B filters and s-triazine compounds” (L'OREAL, priority 2006, published 2008)
